Source: US11739098B2 (BRISTOL-MYERS SQUIBB COMPANY, priority 2017, dated 2023)

Tests used:
Type in all cases: cell-based
[1] = target: T1, human TLR7 (Homo sapiens, UniProt Q9NYK1); assay: TLR7 inhibition reporter assay (HEK-Blue cells, SEAP reporter, gardiquimod stimulation); conditions: HEK-Blue cells overexpressing human TLR7, SEAP reporter, gardiquimod 7.5 μM
T1 construct: host or cells: HEK-Blue cells (HEK293-derived reporter line)
T1 sequence (Q9NYK1 27-1049): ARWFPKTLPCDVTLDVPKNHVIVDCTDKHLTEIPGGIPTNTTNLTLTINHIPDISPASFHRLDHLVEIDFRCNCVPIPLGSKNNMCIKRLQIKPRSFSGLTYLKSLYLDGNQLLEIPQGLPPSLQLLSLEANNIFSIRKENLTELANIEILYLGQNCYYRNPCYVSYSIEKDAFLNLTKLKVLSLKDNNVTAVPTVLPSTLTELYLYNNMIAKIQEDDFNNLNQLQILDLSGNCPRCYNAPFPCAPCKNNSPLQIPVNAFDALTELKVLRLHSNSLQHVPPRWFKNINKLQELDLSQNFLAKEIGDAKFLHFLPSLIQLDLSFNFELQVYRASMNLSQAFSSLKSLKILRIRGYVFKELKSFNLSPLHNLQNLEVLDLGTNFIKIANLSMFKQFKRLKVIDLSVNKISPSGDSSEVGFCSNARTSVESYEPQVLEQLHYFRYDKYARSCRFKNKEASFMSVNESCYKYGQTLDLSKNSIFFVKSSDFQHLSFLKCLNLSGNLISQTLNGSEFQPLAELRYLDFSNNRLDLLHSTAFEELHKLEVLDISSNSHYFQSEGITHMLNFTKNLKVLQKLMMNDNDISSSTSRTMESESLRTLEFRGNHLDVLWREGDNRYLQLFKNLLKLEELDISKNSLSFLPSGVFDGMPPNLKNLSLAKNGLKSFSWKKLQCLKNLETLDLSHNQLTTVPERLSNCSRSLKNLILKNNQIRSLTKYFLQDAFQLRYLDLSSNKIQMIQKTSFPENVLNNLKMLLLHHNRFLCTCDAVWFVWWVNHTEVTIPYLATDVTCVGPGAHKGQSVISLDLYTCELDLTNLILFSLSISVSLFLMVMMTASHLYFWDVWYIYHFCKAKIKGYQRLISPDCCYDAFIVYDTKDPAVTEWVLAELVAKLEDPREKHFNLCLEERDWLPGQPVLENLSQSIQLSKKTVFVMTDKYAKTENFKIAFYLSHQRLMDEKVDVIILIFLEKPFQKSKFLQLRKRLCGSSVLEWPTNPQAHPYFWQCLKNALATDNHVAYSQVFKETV
Description: (§1) TLR7/8/9 Inhibition Reporter Assays
(§2) HEK-Blue™-cells (Invivogen) overexpressing human TLR7, TLR8 or TLR9 receptors were used for screening inhibitors of these receptors using an inducible SEAP (secreted embryonic alkaline phosphatase) reporter gene under the control of the IFN-β minimal promoter fused to five NF-κB and AP-1-binding sites. Briefly, cells are seeded into Greiner 384 well plates (15000 cells per well for TLR7, 20,000 for TLR8 and 25,000 for TLR9) and then treated with test compounds in DMSO to yield a final dose response concentration range of 0.05 nM-50 μM. After a 30 minute compound pre-treatment at room temperature, the cells are then stimulated with a TLR7 ligand (gardiquimod at a final concentration of 7.5 μM), TLR8 ligand (R848 at a final concentration of 15.9 μM) or TLR9 ligand (ODN2006 at a final concentration of 5 nM) to activate NF-κB and AP-1 which induce the production of SLAP After a 22 hour incubation at […], SLAP levels are determined with the addition of HLK-Blue™ Detection reagent (Invivogen), a cell culture medium that allows for detection of SLAP, according to manufacturer's specifications. The percent inhibition is determined as the […] in the HEK-Blue signal present in wells treated with agonist plus DMSO alone compared to wells treated with a known inhibitor.

[2] = target: T2, human TLR8 (Homo sapiens, UniProt Q9NR97); assay: TLR8 inhibition reporter assay (HEK-Blue cells, SEAP reporter, R848 stimulation); conditions: HEK-Blue cells overexpressing human TLR8, SEAP reporter, R848 15.9 μM
T2 construct: host or cells: HEK-Blue cells (HEK293-derived reporter line)
T2 sequence (Q9NR97 27-1041): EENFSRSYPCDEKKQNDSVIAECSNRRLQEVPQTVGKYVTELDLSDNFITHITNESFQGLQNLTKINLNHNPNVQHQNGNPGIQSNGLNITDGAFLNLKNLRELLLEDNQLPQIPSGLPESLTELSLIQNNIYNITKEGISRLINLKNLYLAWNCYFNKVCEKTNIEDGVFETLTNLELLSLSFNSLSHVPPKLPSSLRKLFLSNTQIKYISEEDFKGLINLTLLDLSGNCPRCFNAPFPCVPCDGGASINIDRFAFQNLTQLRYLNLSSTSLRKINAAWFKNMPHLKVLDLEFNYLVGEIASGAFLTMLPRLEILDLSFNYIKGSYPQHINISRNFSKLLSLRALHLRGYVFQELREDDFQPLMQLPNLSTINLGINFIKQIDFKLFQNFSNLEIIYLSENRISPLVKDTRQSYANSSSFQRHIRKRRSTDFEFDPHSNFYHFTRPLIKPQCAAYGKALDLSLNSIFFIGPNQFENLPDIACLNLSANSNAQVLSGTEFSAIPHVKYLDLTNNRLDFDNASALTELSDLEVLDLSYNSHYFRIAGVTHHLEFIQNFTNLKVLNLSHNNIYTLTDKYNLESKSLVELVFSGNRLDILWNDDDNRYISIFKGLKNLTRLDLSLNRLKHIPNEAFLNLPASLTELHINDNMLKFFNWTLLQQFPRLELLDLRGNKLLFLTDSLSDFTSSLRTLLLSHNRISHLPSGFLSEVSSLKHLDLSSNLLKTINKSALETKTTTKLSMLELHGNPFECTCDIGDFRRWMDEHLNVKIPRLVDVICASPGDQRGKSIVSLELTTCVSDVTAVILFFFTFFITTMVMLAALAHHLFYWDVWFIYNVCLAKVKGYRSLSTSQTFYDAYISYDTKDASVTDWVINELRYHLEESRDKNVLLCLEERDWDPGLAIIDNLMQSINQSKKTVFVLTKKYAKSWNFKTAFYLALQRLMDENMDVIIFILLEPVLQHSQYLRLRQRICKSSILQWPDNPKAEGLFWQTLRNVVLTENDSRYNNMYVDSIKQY
Description: as §1, §2

[3] = target: T3, human TLR9 (Homo sapiens, UniProt Q9NR96); assay: TLR9 inhibition reporter assay (HEK-Blue cells, SEAP reporter, ODN2006 stimulation); conditions: HEK-Blue cells overexpressing human TLR9, SEAP reporter, ODN2006 5 nM
T3 construct: host or cells: HEK-Blue cells (HEK293-derived reporter line)
T3 sequence (Q9NR96 26-1032): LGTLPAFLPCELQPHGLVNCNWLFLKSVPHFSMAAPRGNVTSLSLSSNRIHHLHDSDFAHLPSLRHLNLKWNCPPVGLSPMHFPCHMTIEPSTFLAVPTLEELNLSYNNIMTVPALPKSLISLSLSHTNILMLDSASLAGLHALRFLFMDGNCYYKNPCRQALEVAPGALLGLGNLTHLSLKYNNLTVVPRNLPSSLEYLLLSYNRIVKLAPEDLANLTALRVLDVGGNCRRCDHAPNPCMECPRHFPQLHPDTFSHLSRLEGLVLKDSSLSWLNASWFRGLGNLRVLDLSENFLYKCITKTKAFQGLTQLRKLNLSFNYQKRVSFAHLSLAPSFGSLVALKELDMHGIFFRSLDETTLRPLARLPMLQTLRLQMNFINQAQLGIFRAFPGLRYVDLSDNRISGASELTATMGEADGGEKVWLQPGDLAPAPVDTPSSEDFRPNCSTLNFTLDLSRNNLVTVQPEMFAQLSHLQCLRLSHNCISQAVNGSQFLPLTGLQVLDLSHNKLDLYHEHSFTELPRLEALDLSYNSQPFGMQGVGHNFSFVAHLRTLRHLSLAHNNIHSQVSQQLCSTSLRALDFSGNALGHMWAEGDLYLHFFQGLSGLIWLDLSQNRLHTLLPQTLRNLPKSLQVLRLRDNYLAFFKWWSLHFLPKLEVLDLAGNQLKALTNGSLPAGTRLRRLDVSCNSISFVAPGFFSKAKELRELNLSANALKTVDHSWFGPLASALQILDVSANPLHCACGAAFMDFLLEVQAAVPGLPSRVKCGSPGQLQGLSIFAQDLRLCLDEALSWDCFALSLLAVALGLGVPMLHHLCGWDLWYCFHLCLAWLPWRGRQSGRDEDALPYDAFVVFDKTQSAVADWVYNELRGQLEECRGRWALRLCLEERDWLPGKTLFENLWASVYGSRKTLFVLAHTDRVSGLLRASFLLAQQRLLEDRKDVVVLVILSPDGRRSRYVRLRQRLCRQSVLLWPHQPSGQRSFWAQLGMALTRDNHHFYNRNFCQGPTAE
Description: as §1, §2

IC50 [1] | IC50 [2] | IC50 [3] | SMILES
< 100 nM | < 100 nM | 100 to 1000 nM | CC(C)c1c(-c2cnc3ncnn3c2)[nH]c2ccc(C3CCNCC3)cc12 [Example 170, 6-(3-isopropyl-5-(piperidin-4-yl)-1H-indol-2-yl)-[1,2,4]triazolo[1,5-a]pyrimidine]
 | > 3130 nM | 100 to 1000 nM | CNCCN1CCC(c2ccc3[nH]c(-c4cnc5ccccc5c4)c(C)c3c2)CC1 [Example 664, N-methyl-2-(4-(3-methyl-2-(quinolin-3-yl)-1H-indol-5-yl)piperidin-1-yl)ethan-1-amine]
1000 to 50000 nM | 1000 to 50000 nM |  | Cc1c(-c2ccnc3[nH]nnc23)[nH]c2ccc(C3CCNCC3)cc12 [Example 233, 7-(3-methyl-5-(piperidin-4-yl)-1H-indol-2-yl)-3H-[1,2,3] triazolo[4,5-b]pyridine]
 | < 100 nM | 1000 to 50000 nM | COc1cc(-c2[nH]c3ccc(C4CCNCC4)cc3c2C(C)C)cn2cc(C(=O)N(C)C)nc12 [Example 263, 6-(3-isopropyl-5-(piperidin-4-yl)-1H-indol-2-yl)-8-methoxy-N,N-dimethylimidazo[1,2-a]pyridine-2-carboxamide]
100 to 1000 nM | 100 to 1000 nM |  | CC(C)c1c(-c2ccnc3[nH]ncc23)[nH]c2ccc(C3CCN(Cc4ccncc4Cl)CC3)cc12 [Example 923, 4-(5-(1-((3-chloropyridin-4-yl)methyl)piperidin-4-yl)-3-isopropyl-1H-indol-2-yl)-1H-pyrazolo[3,4-b]pyridine]
< 100 nM | 100 to 1000 nM |  | Cc1c(-c2[nH]c3ccc(C4CCNCC4)cc3c2C(C)C)ccc2nccn12 [Example 111, 6-(3-isopropyl-5-(piperidin-4-yl)-1H-indol-2-yl)-5-methylimidazo[1,2-a]pyridine]
< 100 nM |  | 100 to 1000 nM | CNC(=O)CN1CCC(c2ccc3[nH]c(-c4ccc5nc(C)cn5c4)c(CC(F)F)c3c2)CC1 [Example 417, 2-(4-(3-(2,2-difluoroethyl)-2-(2-methylimidazo[1,2-a]pyridin-6-yl)-1H-indol-5-yl)piperidin-1-yl)-N-methylacetamide]
 | > 50000 nM | 1000 to 50000 nM | CCc1c(-c2cccc3c2cnn3C)[nH]c2ccc(C3CCN(C(=O)CN4CCCN(C)CC4)CC3)cc12 [Example 521, 1-(4-(3-ethyl-2-(1-methyl-1H-indazol-4-yl)-1H-indol-5-yl)piperidin-1-yl)-2-(4-methyl-1,4-diazepan-1-yl)ethan-1-one]
 | < 100 nM | 100 to 1000 nM | COC(=O)C1CC(N2CCC(c3ccc4[nH]c(-c5ccnc6[nH]ncc56)c(C(C)C)c4c3)CC2)CCN1 (centres unmarked) [Example 825, methyl 4-(3-isopropyl-2-(1H-pyrazolo[3,4-b]pyridin-4-yl)-1H-indol-5-yl)-[1,4′-bipiperidine]-2′-carboxylate]
< 100 nM |  | 100 to 1000 nM | Cc1cn2cc(-c3[nH]c4ccc(C5CCNCC5)cc4c3CC(F)F)ccc2n1 [Example 129, 6-(3-(2,2-difluoroethyl)-5-(piperidin-4-yl)-1H-indol-2-yl)-2-methylimidazo[1,2-a]pyridine]
 | < 100 nM | 1000 to 50000 nM | COc1cc(-c2[nH]c3ccc(C4CCN(CCS(C)(=O)=O)CC4)cc3c2C(C)C)cn2ccnc12 [Example 801, 6-(3-isopropyl-5-(1-(2-(methylsulfonyl)ethyl)piperidin-4-yl)-1H-indol-2-yl)-8-methoxyimidazo[1,2-a]pyridine]
 | > 3130 nM | 100 to 1000 nM | Cc1c(-c2ncnc3c2cnn3C)[nH]c2ccc(C3CCN(C4CCN(C(C)C)CC4)CC3)cc12 [Example 818, 4-(5-(1′-isopropyl-[1,4′-bipiperidin]-4-yl)-3-methyl-1H-indol-2-yl)-1-methyl-1H-pyrazolo[3,4-d]pyrimidine]
< 100 nM |  | 100 to 1000 nM | CNCC(=O)N1CCC(c2ccc3[nH]c(-c4ccc5nc(C)cn5c4)c(CC(F)F)c3c2)CC1 [Example 550, 1-(4-(3-(2,2-difluoroethyl)-2-(2-methylimidazo[1,2-a]pyridin-6-yl)-1H-indol-5-yl)piperidin-1-yl)-2-(methylamino)ethan-1-one]
< 100 nM | < 100 nM |  | Cc1cc(-c2[nH]c3ccc(C4CCN(C(=O)C[C@H](C)O)CC4)cc3c2C(C)C)cn2nnnc12 [Example 593, (S)-3-hydroxy-1-(4-(3-isopropyl-2-(8-methyltetrazolo[1,5-a]pyridin-6-yl)-1H-indol-5-yl)piperidin-1-yl)butan-1-one]
